Measurements taken from patent US8871900B2, “Fibroblast growth factor (FGF) analogs and uses thereof” (University of Rochester, priority 2008, dated 2014).
Peptide text beside a SMILES is read from it.

How the values were obtained:
[1] = Plasma endotoxin (LPS) after TBI; type: in vivo, mouse; conditions: IR mice
Description: This relates with the FGF-P promotion of WBC regeneration. The low endotoxin indicates a low probability of endothelium damage and less consumption of platelet, which promotes the recovery of homeostasis of TBI mice.

[2] = test system: Balb/c mice exposed to TBI; assay: Survival after TBI (BM syndrome / ARS); type: in vivo, mouse (Balb/c); conditions: for mice survived: Balb/c
[3] = Blood cell counts after 4 or 5 Gy TBI; type: in vivo, mouse
Description: In parallel, the leucocytes and red cells were increased as compared to vehicle-treated mice that received the same IR dose (FIGS. 17C and D).

[4] = test system: mice exposed to sub-TBI (GI syndrome); assay: Survival after sub-TBI (GI syndrome / AGS model); type: in vivo, mouse (Balb/c, C57BL/6, C3H/HeN)
Description: A sub-TBI (total body irradiation) model was created, in which one leg of mouse is shielded from the direct radiation field. With this system, 8.5 Gy can be delivered to Balb/c mice without BM deaths (defined as deaths that occur between 10 and 30 days). When sub-TBI dose was increased to 9 Gy, half the irradiated mice die, and at 10.5 Gy, 66-100% mice died within 5-7 days. Pathologically these mice have devastating gut damage. In our GI (sub-TBI) model, the LD50/7 for Balb/c mice (6-8 week old from NCI) was 8.9-9.1 Gy. Using this GI model, the mitigation effect of FGF-P on the GI syndrome was tested. FGF-P (2 mg/kg) was given im 5-10 minutes after IR and continued once a day for 3-5 consecutive days. Each animal experiment had its own vehicle mock treatment group as control.
When the sub-TBI dose is raised to 10.5 or 11 Gy, 100% of the untreated control mice died of GI syndrome, while 33-67% of mice treated with FGF-P survived 3.5 months, FIGS. 2B and 2C). When the IR dose was raised to 12 Gy, all control animals died and 17% of FGF-P treated mice survived (FIG. 2D). […] Additionally, many of the animals that do die, do so later than mice not treated with FGF-P.
Native FGF-2 has a mouse strain dependent response profile. Most strains enjoy a benefit, but responses in C57 mice have been unimpressive. To determine if the agent works in mice with different genomic backgrounds, FGF-P (2 mg/kg) was given to C57BL/6 mice 10 min after the mice were exposed to 16 Gy sub-TBI. […] A third strain of mouse, C3H/HeN (LD50/7 about 12 Gy), was also studied. At 12.5 Gy sub-TBI, 33% of control mice survived while 50% of mice treated with FGF-P survived. At 13.5 Gy, all the control mice died within 7 days, while 50% of FGF-P treated mice survived (FIG. 3B). Thus unlike native FGF the bioavailability or bioeffect of FGF-P seems to be strain independent.

[5] = Plasma GI endocrine and exocrine markers after sub-TBI; type: in vivo, mouse (Balb/c); conditions: 10.5 Gy sub-TBI, 3.5 days
Description: The gastrointestinal tract facilitates nutritional absorption and digestion through endocrine organs and exocrine function. Measurements of these functions in Balb/c mice with AGS, with and without FGF-P treatment have been made. Regarding endocrine function, critical proteins produced by epithelial cells lining the small intestine and/or the pancreas are: 1) secretin, which stimulates secretion of a bicarbonate-rich fluid from the pancreas and liver; and 2) insulin, produced by pancreatic β cells, which controls the level of blood glucose. Regarding exocrine function, a major digestive protein, amylase was measured. Amylase is secreted by epithelial cells along the GI tract, including the pancreas.
For secretin, the amino acid sequence in mice is ([…], SEQ ID NO: 4), which has a one amino acid change (M vs. T) at position 5. The kit for human secretin (Peninsula Laboratories, cat #S-1229) has been tested and it recognizes the mouse form. A mouse insulin kit is available (Linco Inc. Cat #EZRMI-13 K). The EnzChek Ultr Amylase Assay kit (Molecular Probes, Cat #E33651.3) can be used for all species, since it measures for the enzymatic product. Blood glucose level can be measured with a commercial kit from Sigma (Cat #GAG0-20 and GAHK-20) and is based on enzymatic activity, which is also universal to all species. Using these kits, the alterations in the plasma concentrations of the GI-derived proteins and peptides in mice that had been exposed to 10.5 Gy sub-TBI and, thereafter, received vehicle alone or FGF-P ([…] im) for 3 doses (10 min, 1 day, and 2 days post-IR) were measured. The samples were collected 3.5 days after irradiation.

[6] = Toxicity of FGF-P (LD50/14 experiments); type: in vivo, mouse (Balb/c)
Experimental: Standard LD50/14 experiments have been performed. Up to 400 mg/kg of FGF-P was injected into Balb/c mice. No obvious signs of illness were observed. […] Thus, even the maximum NOAEL (no observed adverse effect level) could not be found. […] This observation is not surprising since similar observations have been made previously with human FGF-2 in mice (9-14) Likewise, it has been shown that in various disease states the level of FGF in humans is commonly 100 times the normal baseline.
A useful mitigator can be effective even given 8-24 hours IR exposure because of the time required for distribution. Therefore, FGF-P given at 8 hour after 7.1 Gy IR was tested.

BM cells = assay: BM colony formation in MethoCult 3 D culture; type: cell-based, mouse (Balb/c)
Description: Survival of ARS depends on rapid reconstitution of hematopoiesis after IR-induced myelosuppression. […] However, the timing and mechanism of effect on BM stem cells is unknown. Also unclear are the number of FGFRs on hematopoietic stem cells (HSCs) and their role in reconstitution after IR. […] To characterize the effects of FGF-P on BM, the study approach was to obtain fresh BM (including both HSCs and MSCs) from Balb/c mice, and culture it under varying conditions (3 D culture or 2 D round-bottom well) in triplicate for 1-3 weeks. The BM cells were stimulated with FGF-P at different doses (as test) or with EPO, TPO, GM-CSF or native FGF2 (as a positive control). The cultures were examined using several methods including colony count, photography, CyQUANT® assay and ^3H-TdR incorporation.

[7] = vs vehicle-treated mice, same IR dose
[8] = FGF-P (2 mg/ml im) 3 doses, P<0.05

CC(C)C[C@H](NC(=O)[C@H](C)NC(=O)[C@@H](NC(=O)[C@H](Cc1ccc(O)cc1)NC(=O)[C@H](Cc1c[nH]c2ccccc12)NC(=O)[C@H](CO)NC(=O)[C@H](CO)NC(=O)[C@H](Cc1ccc(O)cc1)NC(=O)[C@H](CCCCN)NC(=O)[C@H](CCCNC(=N)N)NC(=O)[C@H](CO)NC(=O)[C@H](CCCNC(=N)N)NC(=O)[C@H](Cc1ccc(O)cc1)NC(=O)[C@@H](N)CS)C(C)C)C(=O)N[C@@H](CCCCN)C(=O)N[C@@H](CCCNC(=N)N)C(=O)N[C@@H](CS)C(=O)O [FGF-P, CYRSRKYSSWYVALKRC] (H-CYRSRKYSSWYVALKRC-OH; N-terminus and C-terminus assumed)
plasma level of endotoxin (LPS) [1]: reduced the LPS level | dose achieving best result ([2]; 7.1 Gy TBI, 15, 30, 60 mg/kg tested): 60 mg/kg | dose dependence of mitigation effect ([2]; 7.1 Gy TBI, FGF-P 15, 30, 60 mg/kg): dose-dependent effect | mitigation effect on ARS, DMF ([2]; Balb/c, 6.5, 7 and 7.5 Gy TBI, FGF-P 1 mg/kg IM right after TBI, daily for 5 days): DMF similar to that of native FGF2 | mice survived ([2]; 6.5 Gy TBI): 87% | mice survived ([2]; 7.5 Gy TBI): 66% | mitigation effect with delayed delivery ([2]; FGF-P given 8 hour after 7.1 Gy IR): still effective | platelet counts ([3]; 4 or 5 Gy TBI): accelerated recovery of platelet counts | leucocytes [3, 7]: increased | red cells [3, 7]: increased | mice still alive ([4]; Balb/c, 10 Gy sub-TBI, at 4 months, FGF-P 2 mg/kg im 5-10 min after IR, daily 3-5 days): 87% | mice survived ([4]; Balb/c, 10.5 or 11 Gy sub-TBI, 3.5 months, FGF-P 2 mg/kg im): 33-67% | mice survived ([4]; Balb/c, 12 Gy sub-TBI, FGF-P 2 mg/kg im): 17% | mice survived ([4]; C3H/HeN, 12.5 Gy sub-TBI): 50% | mice survived ([4]; C3H/HeN, 13.5 Gy sub-TBI): 50% | mice still alive ([4]; C57BL/6, 16 Gy sub-TBI, at 1.5 months, FGF-P 2 mg/kg 10 min after IR): 33% | long-term survival ([4]; C57BL/6, 16 Gy sub-TBI, over 2.5 months): 33% | plasma amylase level [5, 8]: restored it to normal levels | plasma insulin levels [5, 8]: restored to near normal | plasma level of secretin [5, 8]: reversed this effect | blood glucose ([5]; FGF-P (im) 3 doses): better preserved | body weight ([6]; Balb/c mice, up to 400 mg/kg): body weight did not decrease | dose tolerated well without any signs of sickness ([6]; mice): up to 4 gram/kg | NOAEL at 14 days ([6]; mouse, in vivo, Balb/c mice, LD50/14 experiments, read-out: injected dose with no obvious signs of illness (maximum NOAEL could not be found)): ≤ 400 mg/kg | colony formation of BM cells (BM cells): enhanced colony formation of BM cells in a dose dependent manner
